The results in this text go back to PubChem BioAssay (NCI).

Some test systems named below: TK-10 renal; HOP-62 NSCLC; SW-620 colon; HL-60(TB) leukemia; A549 NSCLC; NCI-H23 lung; SN12C renal; OVCAR-8 ovarian; SK-OV-3 ovarian; SF-539 CNS; CAKI-1 renal; EKVX NSCLC; A498 renal; SF-295 CNS; NCI/ADR-RES ovarian; MDA-MB-231 breast; HOP-92 NSCLC; MCF7 breast; MDA-MB-435.
Common to all, as to experiment: NCI-60 cell line screen, 48 h

Each structure is given as a SMILES string.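 48-hour exposure; five concentrations; linearly interpolated endpoints. The concentration for full growth arrest is given as TGI.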

As for `O/N=C/c1cc2c(cc1Br)OCO2`, the TGI in the test on TK-10 renal, in the test on HOP-62 NSCLC, in the test with SW-620 colon, with HL-60(TB) leukemia, in the test on A549 NSCLC and in the test with NCI-H23 lung was more than 100 µM each time. The TGI with SN12C renal, in the test on OVCAR-8 ovarian, in the test on SK-OV-3 ovarian, with SF-539 CNS, in the test on CAKI-1 renal and in the test on EKVX NSCLC was more than 100 µM in each case. In addition, the TGI in the test with A498 renal and in the test on SF-295 CNS was more than 100 µM in each case.

As for `COc1ccc(C(=O)c2sc(Nc3ccccc3)nc2N)cc1`, the TGI with TK-10 renal is more than 100 µM; in the test with HOP-62 NSCLC it was more than 80.2 µM; in the test on NCI/ADR-RES ovarian, more than 100 µM; in the test on SW-620 colon it was more than 100 µM; in the test on MDA-MB-231 breast it was more than 100 µM; in the test with HOP-92 NSCLC, more than 100 µM. Further, the TGI in the test with A549 NSCLC, in the test on MCF7 breast, in the test on NCI-H23 lung, with SN12C renal, in the test with OVCAR-8 ovarian and in the test with SK-OV-3 ovarian was more than 100 µM each time. Further, the TGI in the test on SF-539 CNS, with EKVX NSCLC, in the test on A498 renal and in the test on SF-295 CNS was more than 100 µM each time.

Turning to `COc1cc(Cl)cc(N(O)C(C)=O)c1OCc1ccccc1`, the TGI in the test with TK-10 renal, in the test on HOP-62 NSCLC, in the test with SW-620 colon, in the test with HOP-92 NSCLC, in the test on HL-60(TB) leukemia and in the test with A549 NSCLC was more than 100 µM in each case. The TGI in the test with NCI-H23 lung, in the test with SN12C renal, with OVCAR-8 ovarian, in the test on SK-OV-3 ovarian, in the test on SF-539 CNS and with CAKI-1 renal was more than 100 µM each time. The TGI with EKVX NSCLC, with A498 renal and with SF-295 CNS was more than 100 µM each time.

As to `CCC(CC)n1cc(C(=O)NC(=O)NCCCCCOC(=O)CCCCCCCCCCC(=O)OCCCCCNC(=O)NC(=O)c2cn(C(CC)CC)c(=O)[nH]c2=O)c(=O)[nH]c1=O`, the TGI in the test on TK-10 renal, in the test on HOP-62 NSCLC, in the test on SW-620 colon, in the test with HOP-92 NSCLC, in the test on HL-60(TB) leukemia and in the test with A549 NSCLC was more than 100 µM in each case. The TGI in the test on NCI-H23 lung, in the test on SN12C renal, in the test on OVCAR-8 ovarian, with SK-OV-3 ovarian, in the test on SF-539 CNS and in the test with CAKI-1 renal was more than 100 µM in each case. In addition, the TGI in the test with EKVX NSCLC, with A498 renal and in the test on SF-295 CNS was more than 100 µM throughout.

Take `COc1cc2nc(-c3cccs3)nc(N3C(c4ccc(O)cc4)=NNC(=O)c4ccccc43)c2cc1OC`: the TGI in the test on TK-10 renal was 70.5 µM; in the test on HOP-62 NSCLC it was more than 100 µM; in the test with NCI/ADR-RES ovarian, 44.3 µM; with SW-620 colon, 79.8 µM; in the test on MDA-MB-231 breast, 42.6 µM; with A549 NSCLC it was more than 100 µM. For the same compound, the TGI is 58.9 µM with MDA-MB-435; more than 100 µM in the test with MCF7 breast; 78.1 µM with NCI-H23 lung; 50.2 µM with SN12C renal; more than 100 µM in the test on OVCAR-8 ovarian; more than 100 µM in the test with SK-OV-3 ovarian. Besides, the TGI in the test on SF-539 CNS was 23.6 µM; with CAKI-1 renal it was 43.9 µM; in the test on EKVX NSCLC, 75.6 µM; with A498 renal it was more than 100 µM; with SF-295 CNS it was 39.4 µM.

On to `C=CCN(N=O)C(=O)N(CCCC(NC(C)=O)C(=O)NCc1ccccc1)Cc1ccccc1` (centres undefined), for which the TGI with TK-10 renal is more than 100 µM; with HOP-62 NSCLC, more than 100 µM; in the test with SW-620 colon it was more than 100 µM; in the test with HL-60(TB) leukemia, 52.9 µM; with A549 NSCLC, more than 100 µM; in the test with NCI-H23 lung, more than 100 µM. For the same compound, the TGI was more than 100 µM in the test on SN12C renal; more than 100 µM in the test with OVCAR-8 ovarian; more than 100 µM in the test on SK-OV-3 ovarian; more than 100 µM in the test with SF-539 CNS; 83.9 µM in the test with CAKI-1 renal; more than 100 µM with EKVX NSCLC. The TGI in the test on A498 renal and in the test on SF-295 CNS was more than 100 µM in each case.

Consider `CCn1c2ccccc2c2ccc3c(c21)C(=O)c1ccccc1C3=O`, for which the TGI in the test with HOP-62 NSCLC, in the test with SW-620 colon, with HOP-92 NSCLC, with HL-60(TB) leukemia, in the test with A549 NSCLC and in the test with NCI-H23 lung was more than 100 µM each time. Also, the TGI with SN12C renal, with OVCAR-8 ovarian, in the test with SK-OV-3 ovarian, in the test with SF-539 CNS, in the test with EKVX NSCLC and in the test on A498 renal was more than 100 µM in each case. The same compound registered a TGI with SF-295 CNS of more than 100 µM.

Turning to `Cc1cccc(NC(=O)c2cc3cc(N=Nc4ccccc4Cl)ccc3oc2=O)c1`, the TGI was 86.2 µM in the test on TK-10 renal; more than 100 µM in the test on HOP-62 NSCLC; more than 100 µM with SW-620 colon; 76.1 µM with HOP-92 NSCLC; more than 100 µM with HL-60(TB) leukemia; more than 100 µM in the test with A549 NSCLC. In addition, the TGI is 59.5 µM with NCI-H23 lung; more than 100 µM with SN12C renal; more than 100 µM in the test on OVCAR-8 ovarian; more than 100 µM with SK-OV-3 ovarian; 94.9 µM in the test with SF-539 CNS; more than 100 µM in the test on CAKI-1 renal. For the same compound, the TGI with EKVX NSCLC, in the test on A498 renal and with SF-295 CNS was more than 100 µM each time.

Turning to `COC(=O)C1C2C=CC(C2)C1(C(=O)OC)S(=O)CC12CCC(CC1O)C2(C)C` (centres undefined), the TGI in the test with TK-10 renal is more than 100 µM; in the test with HOP-62 NSCLC, more than 100 µM; in the test on SW-620 colon, 37.6 µM; in the test with HOP-92 NSCLC, more than 100 µM; with HL-60(TB) leukemia it was more than 100 µM; in the test with A549 NSCLC it was more than 100 µM. In addition, the TGI in the test on NCI-H23 lung, in the test with SN12C renal, in the test on OVCAR-8 ovarian, in the test on SK-OV-3 ovarian, with SF-539 CNS and with CAKI-1 renal was more than 100 µM in each case. The TGI in the test with EKVX NSCLC, in the test with A498 renal and in the test with SF-295 CNS was more than 100 µM throughout.
